Measurements from publication PMC314469, “Protein Interaction Networks by Proteome Peptide Scanning” (PLoS Biology, 2004).
No end group written: not given here.

Experiments:
[1] = molecular target: T1, Rvs167 SH3 domain (GST-fused) (Saccharomyces cerevisiae, UniProt P39743); experiment: Surface plasmon resonance (BIAcoreX) dissociation constants of peptides, Rvs167 SH3 domain; assay type: binding; details: Figure 4A; SPR BIAcoreX, GST-SH3 coupled to CM5 chip, GST control; peptides in 10 mM HEPES, 150 mM NaCl, 3.4 mM EDTA, 0.005% P20, pH 7.4, 25°C; steady-state model; read-out: dissociation constant, SH3 DOMAINS RVS167
T1 construct: Experiments were carried out on sensor chips with GST-fused SH3 domains and GST as a control; made in house
T1 sequence (P39743 421-482 limits assumed): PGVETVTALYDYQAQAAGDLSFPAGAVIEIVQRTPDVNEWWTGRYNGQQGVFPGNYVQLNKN
Protocol: (§1) Figure 4 Measurement of Dissociation Constants and Correlation with SPOT Intensities (A) Dissociation constants were measured with a BIAcoreX instrument as described in the Materials and Methods. The experiments with the Abp1 SH3 domain were carried out in triplicate. (B) Normalized BLU intensities plotted as a function of the log of the dissociation constant.
(§2) Surface plasmon resonance measurements were carried out with a BIAcoreX instrument (BIAcore, Uppsala, Sweden). Experiments were carried out on sensor chips with GST-fused SH3 domains and GST as a control. […] Interaction analysis was performed at 25°C with the peptides dissolved in 10 mM HEPES, 150 mM NaCl, 3.4 mM EDTA, and 0.005% surfactant P20 (pH 7.4), at 15 μl/min flow rate, using six to seven dilutions, ranging from 500 μM to 65 nM. Dissociation constant values were evaluated by applying the steady-state model using BIAcore evalution 3.1 software.

[2] = molecular target: T2, Boi2 SH3 domain (GST-fused) (Saccharomyces cerevisiae, UniProt P39969); experiment: Surface plasmon resonance (BIAcoreX) dissociation constants of peptides, Boi2 SH3 domain; assay type: binding; details: Figure 4A; SPR BIAcoreX, GST-SH3 coupled to CM5 chip, GST control; peptides in 10 mM HEPES, 150 mM NaCl, 3.4 mM EDTA, 0.005% P20, pH 7.4, 25°C; steady-state model; read-out: dissociation constant, SH3 DOMAINS BOI2
T2 construct: Experiments were carried out on sensor chips with GST-fused SH3 domains and GST as a control; made in house
T2 sequence (P39969 43-107 limits assumed): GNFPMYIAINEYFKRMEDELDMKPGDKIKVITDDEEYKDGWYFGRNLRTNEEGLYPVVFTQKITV
Protocol: as §1, §2

[3] = molecular target: T3, Ysc84 SH3 domain (GST-fused) (Saccharomyces cerevisiae, UniProt P32793); experiment: Surface plasmon resonance (BIAcoreX) dissociation constants of peptides, Ysc84 SH3 domain; assay type: binding; details: Figure 4A; SPR BIAcoreX, GST-SH3 coupled to CM5 chip, GST control; peptides in 10 mM HEPES, 150 mM NaCl, 3.4 mM EDTA, 0.005% P20, pH 7.4, 25°C; steady-state model; read-out: dissociation constant, SH3 DOMAINS YSC84
T3 construct: Experiments were carried out on sensor chips with GST-fused SH3 domains and GST as a control; made in house
T3 sequence (P32793 409-468 limits assumed): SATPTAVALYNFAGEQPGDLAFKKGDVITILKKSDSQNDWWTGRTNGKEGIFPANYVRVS
Protocol: as §1, §2

[4] = molecular target: T4, Yfr024c SH3 domain (GST-fused) (Saccharomyces cerevisiae, UniProt P43603); experiment: Surface plasmon resonance (BIAcoreX) dissociation constants of peptides, Yfr024c SH3 domain; assay type: binding; details: Figure 4A; SPR BIAcoreX, GST-SH3 coupled to CM5 chip, GST control; peptides in 10 mM HEPES, 150 mM NaCl, 3.4 mM EDTA, 0.005% P20, pH 7.4, 25°C; steady-state model; read-out: dissociation constant, SH3 DOMAINS YFR024C
T4 construct: Experiments were carried out on sensor chips with GST-fused SH3 domains and GST as a control; made in house
T4 sequence (P43603 400-459 limits assumed): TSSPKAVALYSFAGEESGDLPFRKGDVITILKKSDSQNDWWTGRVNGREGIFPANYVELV
Protocol: as §1, §2

Myo5 SH3 domain = experiment: SPOT analysis of cellulose-bound peptides (WISE), Myo5 SH3 domain (Dataset S4); assay type: binding, Saccharomyces cerevisiae; details: for The normalized value in BLU units: Myo5 SH3 domain; for The normalized value in BLU units (SPOT analysis, Myo5 SH3): SPOT analysis of membrane-synthesized peptides probed with Myo5 SH3 domain
[5] = SPOT analysis of cellulose-bound 14-mer yeast proteome peptides, normalized value, mean where the peptide was synthesized more than once
[6] = SPOT analysis of membrane-bound peptides, normalized value (see methods)

Row | Sequence | Kd [1] | Kd [2] | Kd [3] | Kd [4] | The normalized value in BLU units (Myo5 SH3 domain; [5]) | other results
1 | NIQPDLPPRKIMIP [YBR239C NIQPDLPPRKIMIP] | 39 µM | > 100 µM | 16 µM | 22 µM | – | –
2 | GKDKSRPPRPPPKP [PK1 GKDKSRPPRPPPKP] | > 100 µM | – | – | – | – | –
3 | STPPTLPPRRIEDP [YMR192 STPPTLPPRRIEDP] | 28 µM | > 100 µM | 9.1 µM | 11 µM | – | –
4 | SGPPLLPPRNTMKN [YJR083C SGPPLLPPRNTMKN] | 16 µM | > 100 µM | 5 µM | 3.5 µM | – | –
5 | GTTNRGPPPLPPRA [ACF2 GTTNRGPPPLPPRA] | 6.3 µM | > 100 µM | 1.1 µM | 1.7 µM | – | –
6 | NAPERAVPILPPRN [YBR108W NAPERAVPILPPRN] | 56 µM | > 100 µM | 13 µM | 4.2 µM | – | –
7 | RAVPILPPRNNVEP [YBR108W RAVPILPPRNNVEP] | 39 µM | > 100 µM | 13 µM | 14 µM | – | –
8 | RGPPPLPPRANVQP [ACF2 RGPPPLPPRANVQP] | – | > 100 µM | 1.6 µM | 1.3 µM | – | –
9 | SSPPPLPTRRDHIK [YPR171 SSPPPLPTRRDHIK] | 16 µM | > 100 µM | 3.3 µM | 4.8 µM | – | –
10 | RPLPQLPNRNNRPV [LAS17 RPLPQLPNRNNRPV] | 30 µM | > 100 µM | 9.6 µM | 8.9 µM | – | –
11 | DIKTRSVPKIPSIE [DEM1 DIKTRSVPKIPSIE] | > 100 µM | > 100 µM | > 100 µM | > 100 µM | – | –
12 | PQQNRPLPQLPNRN [LAS17 PQQNRPLPQLPNRN] | 32 µM | > 100 µM | 27 µM | 19 µM | – | –
13 | VPPNFNAPPNPMAF | – | – | – | – | 1568.9 BLU | –
14 | GDHPKGPPPPPPPD | – | – | – | – | – | The normalized value in BLU units (SPOT analysis, Myo5 SH3) (Myo5 SH3 domain; normalized value): 40130.9 BLU
15 | APLLYSCPSEPMAY | – | – | – | – | 83.1 BLU | –
16 | IMDAKFHPFKPQLF | – | – | – | – | 246.2 BLU | –
17 | AERAKKAPSLPEGQ | – | – | – | – | – | The normalized value in BLU units (SPOT analysis, Myo5 SH3) (Myo5 SH3 domain; normalized value): 389.2 BLU

Row | Sequence | Kd [1] | Kd [2] | Kd [3] | Kd [4] | The normalized value in BLU units (Myo5 SH3 domain; [5]) | other results
18 | DFIKLMNPTLPSLK | – | – | – | – | 151.5 BLU | –
19 | PKHIRNEPVKPFRN | – | – | – | – | – | The normalized value in BLU units (SPOT analysis, Myo5 SH3) (Myo5 SH3 domain; normalized value): 360.9 BLU
20 | KPKVLFHPHWPLYI | – | – | – | – | 195.5 BLU | –
21 | IFFKLIHPFLPILH | – | – | – | – | 503.3 BLU | –
22 | KALWKIQPYLPEFS | – | – | – | – | – | The normalized value in BLU units (SPOT analysis, Myo5 SH3) (Myo5 SH3 domain; normalized value): 146.1 BLU
23 | FLQDRVIPIFPHYP | – | – | – | – | – | The normalized value in BLU units (SPOT analysis, Myo5 SH3) (Myo5 SH3 domain; normalized value): 260.9 BLU
24 | SLCALVGPVIPHTI | – | – | – | – | 28.4 BLU | –
25 | KNPTKSPPPPPSPS | – | – | – | – | – | The normalized value in BLU units (SPOT analysis, Myo5 SH3) (Myo5 SH3 domain; normalized value): 27847.4 BLU
26 | LGSEKSCPLAPAVA | – | – | – | – | – | The normalized value in BLU units (SPOT analysis, Myo5 SH3) (Myo5 SH3 domain; normalized value): 121.9 BLU
27 | FKVYRWNPDEPSAK | – | – | – | – | – | The normalized value in BLU units (SPOT analysis, Myo5 SH3) (Myo5 SH3 domain; normalized value): 99.0 BLU
28 | DETRKLTPCSPGDD | – | – | – | – | – | The normalized value in BLU units (Myo5 SH3 domain; [6]): 230.8 BLU
29 | VLKNLPTPGEPFNF | – | – | – | – | 148.4 BLU | –
30 | VKPTKLEPENPQKP | – | – | – | – | – | The normalized value in BLU units (SPOT analysis, Myo5 SH3) (Myo5 SH3 domain; normalized value): 91.3 BLU
31 | EIAKRLQPGSPVLG | – | – | – | – | – | The normalized value in BLU units (Myo5 SH3 domain; [6]): 172.5 BLU
32 | HLFHLTTPQDPRLL | – | – | – | – | 245.7 BLU | –
33 | GEYDLIMPIYPYRL | – | – | – | – | 242.0 BLU | –
